This note sets out measurements from ChEMBL document CHEMBL1671708, “Hydroxymethylnitrofurazone is active in a murine model of Chagas' disease” (Antimicrob Agents Chemother, 2010).

Activity calls are given as the source filed them. No cut-off for these calls is given here.

Series [1] concerns Trypanosoma cruzi. Briefly: Antimicrobial activity against Trypanosoma cruzi Tulahuen infected in Swiss mouse assessed as reduction in parasite specific antibodies at 60 mg/kg/day, po for 6 days per week until completion of 60 compound doses administered 5 days post infection measured 45 days post dose by ELISA based serological study. It is filed as functional, organism-based. (In general: An ELISA detects its analyte on a solid surface through an enzyme-linked reagent.)

The subject of series [2] is Mus musculus. Kind of series: Toxicity in Trypanosoma cruzi Tulahuen infected in Swiss mouse assessed as changes in liver SGOT enzyme levels at 60 mg/kg/day, po for 6 days per week until completion of 60 compound doses administered 5 days post infection […]. It is filed as organism-based. On the set-up: route oral. The note with it: in vivo.

Series [3] deals with Trypanosoma cruzi. Briefly: Antimicrobial activity against Trypanosoma cruzi Tulahuen infected in Swiss mouse assessed as reduction in reduction in parasite induced histopathological changes in liver at 60 mg/kg/day, po for 6 days per week until completion of 60 compound doses administered 5 days post infection by hematoxylin-eosin staining. Type of series: functional, organism-based.

Series [4] relates to Trypanosoma cruzi. Briefly: Antimicrobial activity against Trypanosoma cruzi Tulahuen infected in Swiss mouse assessed as parasite DNA level at 60 mg/kg/day, po for 6 days per week until completion of 60 compound doses administered 5 days post infection measured 30 days post dose by PCR amplification method. It is filed as functional.
Series [5] has as its system Trypanosoma cruzi. Briefly: Antimicrobial activity against Trypanosoma cruzi Tulahuen infected in Swiss mouse assessed as parasite DNA level at 60 mg/kg/day, po for 6 days per week until completion of 60 compound doses administered 5 days post infection measured 180 days post dose by PCR amplification method. Type of series: functional.
The test system of series [6] is Trypanosoma cruzi. Kind of series: Antimicrobial activity against Trypanosoma cruzi Tulahuen infected in Swiss mouse assessed as reduction in blood parasite load at 60 mg/kg/day, po for 6 days per week until completion of 60 compound doses administered 5 days post infection. Type of series: functional, organism-based.
The subject of series [7] is Trypanosoma cruzi. Briefly: Antimicrobial activity against Trypanosoma cruzi Tulahuen infected in Swiss mouse assessed as reduction in parasite specific antibodies at 60 mg/kg/day, po for 6 days per week until completion of 60 compound doses administered 5 days post infection measured 180 days post dose by ELISA based serological study. Set-up: scale not given: the % may be the effect or the level left. It is filed as functional.

For series [8], the system named is Trypanosoma cruzi. Kind of series: Antimicrobial activity against Trypanosoma cruzi Tulahuen infected in Swiss mouse assessed as mouse mortality at 60 mg/kg/day, po for 6 days per week until completion of 60 compound doses administered 5 days post infection. Type of series: functional.
The subject of series [9] is Trypanosoma cruzi. Briefly: Antimicrobial activity against Trypanosoma cruzi Tulahuen infected in Swiss mouse assessed as reduction in reduction in parasite induced histopathological changes in skeletal muscle at 60 mg/kg/day, po for 6 days per week until completion of 60 compound doses administered 5 days post infection by hematoxylin-eosin staining. Type of series: functional, organism-based.

The subject of series [10] is Trypanosoma cruzi. Briefly: Antimicrobial activity against Trypanosoma cruzi Tulahuen infected in Swiss mouse assessed as reduction in reduction in parasite induced histopathological changes in skeletal muscle at 150 mg/kg/day, po for 6 days per week until completion of 60 compound doses administered 5 days post infection by hematoxylin-eosin staining. Type of series: functional, organism-based.

Series [11] has as its system Trypanosoma cruzi. Kind of series: Antimicrobial activity against Trypanosoma cruzi Tulahuen infected in Swiss mouse assessed as reduction in parasite specific antibodies at 150 mg/kg/day, po for 6 days per week until completion of 60 compound doses administered 5 days post infection measured 45 days post dose by ELISA based serological study. It is filed as functional, organism-based.

The test system of series [12] is Trypanosoma cruzi. Briefly: Antimicrobial activity against Trypanosoma cruzi Tulahuen infected in Swiss mouse assessed as reduction in blood parasite load at 150 mg/kg/day, po for 6 days per week until completion of 60 compound doses administered 5 days post infection. Type of series: functional, organism-based.
Series [13] concerns Trypanosoma cruzi. Briefly: Antimicrobial activity against Trypanosoma cruzi Tulahuen infected in Swiss mouse assessed as parasite DNA level at 150 mg/kg/day, po for 6 days per week until completion of 60 compound doses administered 5 days post infection measured 30 days post dose by PCR amplification method. It is filed as functional.
Series [14] relates to Mus musculus. Kind of series: Toxicity in Trypanosoma cruzi Tulahuen infected in Swiss mouse assessed as changes in liver SGOT enzyme levels at 150 mg/kg/day, po for 6 days per week until completion of 60 compound doses administered 5 days post infection […]. Set-up: route oral. To be noted: in vivo. It is filed as organism-based.
Series [15] relates to Trypanosoma cruzi. Kind of series: Antimicrobial activity against Trypanosoma cruzi Tulahuen infected in Swiss mouse assessed as parasite DNA level at 150 mg/kg/day, po for 6 days per week until completion of 60 compound doses administered 5 days post infection measured 180 days post dose by PCR amplification method. It is filed as functional.
For series [16], the system named is Trypanosoma cruzi. Kind of series: Antimicrobial activity against Trypanosoma cruzi Tulahuen infected in Swiss mouse assessed as reduction in reduction in parasite induced histopathological changes in liver at 150 mg/kg/day, po for 6 days per week until completion of 60 compound doses administered 5 days post infection by hematoxylin-eosin staining. Type of series: functional, organism-based.

In series [17] the test system is Trypanosoma cruzi. Kind of series: Antimicrobial activity against Trypanosoma cruzi Tulahuen infected in Swiss mouse assessed as reduction in parasite specific antibodies at 150 mg/kg/day, po for 6 days per week until completion of 60 compound doses administered 5 days post infection measured 180 days post dose by ELISA based serological study. It is filed as functional. On the set-up: scale not given: the % may be the effect or the level left.

The test system of series [18] is Trypanosoma cruzi. Briefly: Antimicrobial activity against Trypanosoma cruzi Tulahuen infected in Swiss mouse assessed as mouse mortality rate at 150 mg/kg/day, po for 6 days per week until completion of 60 compound doses administered 5 days post infection. It is filed as functional.
For series [19], the system named is Mus musculus. Briefly: Toxicity in Swiss mouse infected with Trypanosoma cruzi Tulahuen assessed as occurrence of dehydration at 150 mg/kg/day, po for 6 days per week until completion of 60 compound doses administered 5 days post infection measured 2 weeks post dose. Set-up: route oral. The note with it: in vivo, 336 h. Type of series: organism-based.
The subject of series [20] is Mus musculus. Kind of series: Toxicity in Swiss mouse infected with Trypanosoma cruzi Tulahuen assessed as occurrence of erected hair at 150 mg/kg/day, po for 6 days per week until completion of 60 compound doses administered 5 days post infection measured 2 weeks post dose. It is filed as organism-based. On the set-up: route oral. The note with it: in vivo, 336 h.

Series [21] has as its system Mus musculus. Briefly: Toxicity in Swiss mouse infected with Trypanosoma cruzi Tulahuen assessed as occurrence of inactivity at 150 mg/kg/day, po for 6 days per week until completion of 60 compound doses administered 5 days post infection measured 2 weeks post dose. It is filed as organism-based. On the set-up: route oral. To be noted: in vivo, 336 h.

As for `O=C(Cn1ccnc1[N+](=O)[O-])NCc1ccccc1` [BENZNIDAZOLE], the result in the series on Trypanosoma cruzi [1], in the series on Trypanosoma cruzi [3], with Trypanosoma cruzi [6] and with Trypanosoma cruzi [9] was Active. Also, the Activity entry is “Non-toxic” in the series on Mus musculus [2]; 0% with Trypanosoma cruzi [4]; 0% in the series on Trypanosoma cruzi [5]; 50% with Trypanosoma cruzi [7]; 33.3% in the series on Trypanosoma cruzi [8].
For the molecule `O=C(NCO)N/N=C/c1ccc([N+](=O)[O-])o1` [HYDROXYMETHYLNITROFURAZONE], the outcome with Trypanosoma cruzi [10], in the series on Trypanosoma cruzi [11], with Trypanosoma cruzi [12] and in the series with Trypanosoma cruzi [16] was Active. The Activity with Trypanosoma cruzi [13] is reported as 10%; in the series on Mus musculus [14], “Non-toxic”; in the series on Trypanosoma cruzi [15], 0%; with Trypanosoma cruzi [17] it was 30%; in the series with Trypanosoma cruzi [18], 16%.
For the molecule `NC(=O)N/N=C/c1ccc([N+](=O)[O-])o1` [NITROFURAZONE], the result in the series with Trypanosoma cruzi [10], in the series on Trypanosoma cruzi [11], in the series on Trypanosoma cruzi [12] and with Trypanosoma cruzi [16] was Active. The Activity entry with Mus musculus [19] was “Toxic”; with Mus musculus [20] it was “Toxic”; with Trypanosoma cruzi [13], 66.6%; in the series with Mus musculus [14], “Non-toxic”; in the series on Trypanosoma cruzi [15], 0%; with Mus musculus [21], “Toxic”. For the same molecule, the Activity in the series with Trypanosoma cruzi [18] turned out to be 75%.
